Experimental data published in ChEMBL document CHEMBL5608180, “DNA G-quadruplexes in the genome of Trypanosoma cruzi as potential therapeutic targets for Chagas disease: Dithienylethene ligands as effective antiparasitic agents” (Eur J Med Chem, 2024).
pIC50: −log10 of the molar value. Calls of active or inactive are those of the source. The calls are words filed in the database; no cut-off is given here.

Assays:
Quadruplex DNA [1] = assay: Binding affinity to Trypanosoma cruzi G-quadruplex TCr DNA (FAM-5'-GGGAGGGACGGATGGGCAGAAACGGG-3'-TAMRA) assessed as broadening of imino proton signals at 1 equiv. by 1H-NMR analysis; format: nucleic-acid assay
Quadruplex DNA [2] = assay: Stabilization of Trypanosoma cruzi G-quadruplex TCr DNA (FAM-5'-GGGAGGGACGGATGGGCAGAAACGGG-3'-TAMRA) assessed as change in apparent melting temperature at 5 uM by FRET melting analysis; format: nucleic-acid assay
[3] = Cytotoxicity against human MRC5 cells; format: toxicity, cell-based
Quadruplex DNA [4] = assay: Stabilization of Trypanosoma cruzi G-quadruplex RCr DNA (FAM-5'-GGGGACGGGAATGGGGGTGCATGAGGGG-3'-TAMRA) assessed as change in apparent melting temperature at 5 uM by FRET melting analysis; format: nucleic-acid assay
[5] = Selectivity index, ratio of IC50 for cytotoxicity against human MRC5 cells to IC50 for antiparasitic activity against epimastigote form of Trypanosoma cruzi Y (TcII); format: toxicity, cell-based; conditions: read-out: Ratio IC50
Quadruplex DNA [6] = assay: Stabilization of Trypanosoma cruzi G-quadruplex MCr DNA (FAM-5'-GTGGAGGGGGAGGGTCATGGGG-3'-TAMRA) assessed as change in apparent melting temperature at 5 uM by FRET melting analysis; format: nucleic-acid assay
Quadruplex DNA [7] = assay: Stabilization of human telomere G-quadruplex F21T DNA (FAM-5'-GGGTTAGGGTTAGGGTTAGGG-3'-TAMRA) at 5 uM in presence of 1 to 10 uM double stranded ds26 DNA by FRET melting analysis; format: nucleic-acid assay
Trypanosoma cruzi [8] = assay: Antiparasitic activity against epimastigote form of Trypanosoma cruzi SOL(TcV) assessed as inhibition of parasite growth incubated for 96 hrs followed by incubation in dark with resazurin for 4 to 6 hrs by resazurin dye based fluorescence analysis; format: functional, organism-based
Quadruplex DNA [9] = assay: Stabilization of Trypanosoma cruzi G-quadruplex RCr DNA (FAM-5'-GGGGACGGGAATGGGGGTGCATGAGGGG-3'-TAMRA) at 5 uM in presence of 1 to 10 uM double stranded ds26 DNA by FRET melting analysis; format: nucleic-acid assay
[10] = Selectivity index, ratio of IC50 for cytotoxicity against human MRC5 cells to IC50 for antiparasitic activity against epimastigote form of Trypanosoma cruzi BM Lopez (TcIa); format: toxicity, cell-based; conditions: read-out: Ratio IC50
Quadruplex DNA [11] = assay: Stabilization of Trypanosoma cruzi G-quadruplex RCr DNA (FAM-5'-GGGGACGGGAATGGGGGTGCATGAGGGG-3'-TAMRA) at 10 uM by FRET melting analysis; format: nucleic-acid assay
[12] = Selectivity index, ratio of IC50 for cytotoxicity against human MRC5 cells to IC50 for antiparasitic activity against trypomastigote form of Trypanosoma cruzi SOL (TcV); format: toxicity, cell-based; conditions: read-out: Ratio IC50
Trypanosoma cruzi [13] = assay: Antiparasitic activity against trypomastigote form of Trypanosoma cruzi SOL (MHOM/ES/2008/SOL; DTU V) assessed as inhibition of parasite growth incubated for 96 hrs followed by incubation in dark with resazurin for 4 to 6 hrs by resazurin dye based fluorescence analysis; format: functional, organism-based
[14] = Selectivity index, ratio of IC50 for cytotoxicity against human MRC5 cells to IC50 for antiparasitic activity against epimastigote form of Trypanosoma cruzi SOL (TcV); format: toxicity, cell-based; conditions: read-out: Ratio IC50
dsDNA [15] = assay: Binding affinity to human duplex FdxT DNA (FAM-5'-TATAGCTAT-peg-TATAGCTATA-3'-TAMRA) at 5 uM by FRET melting analysis; format: nucleic-acid assay
Quadruplex DNA [16] = assay: Binding affinity to Trypanosoma cruzi G-quadruplex MCr DNA (FAM-5'-GTGGAGGGGGAGGGTCATGGGG-3'-TAMRA) assessed as broadening of imino proton signals at 1 equiv. by 1H-NMR analysis; format: nucleic-acid assay
Trypanosoma cruzi [17] = assay: Antiparasitic activity against epimastigote form of Trypanosoma cruzi BM Lopez (TcIa) assessed as inhibition of parasite growth incubated for 96 hrs followed by incubation with resazurin for 4 to 6 hrs by resazurin dye based fluorescence analysis; format: functional, organism-based
[18] = Drug uptake in epimastigote form of Trypanosoma cruzi BM Lopez at 20 uM measured after 2 hrs by fluorescence microscopy; format: ADME
Quadruplex DNA [19] = assay: Binding affinity to Trypanosoma cruzi G-quadruplex MCr DNA (FAM-5'-GTGGAGGGGGAGGGTCATGGGG-3'-TAMRA) at DNA:compound concentration ratio of 1:1 to 1:2 by CD melting assay; format: nucleic-acid assay
Quadruplex DNA [20] = assay: Stabilization of human telomere G-quadruplex F21T DNA (FAM-5'-GGGTTAGGGTTAGGGTTAGGG-3'-TAMRA) assessed as change in apparent melting temperature at 5 uM by FRET melting analysis; format: nucleic-acid assay
Quadruplex DNA [21] = assay: Binding affinity to Trypanosoma cruzi G-quadruplex RCr DNA (FAM-5'-GGGGACGGGAATGGGGGTGCATGAGGGG-3'-TAMRA) assessed as increase in melting temperature at DNA:compound concentration ratio of 1:2 by CD melting assay; format: nucleic-acid assay
Trypanosoma cruzi [22] = assay: Antiparasitic activity against epimastigote form of Trypanosoma cruzi Y(TcII) assessed as inhibition of parasite growth incubated for 96 hrs followed by incubation with resazurin for 4 to 6 hrs by resazurin dye based fluorescence analysis; format: functional, organism-based
Quadruplex DNA [23] = assay: Binding affinity to Trypanosoma cruzi G-quadruplex MCr DNA (FAM-5'-GTGGAGGGGGAGGGTCATGGGG-3'-TAMRA) assessed as decrease in absorption with shift to higher wavelength at 25 uM by UV-Vis spectrophotometric analysis; format: nucleic-acid assay
[24] = Drug uptake in epimastigote form of Trypanosoma cruzi BM Lopez assessed as localization in kinetoplast and nucleus at 20 uM measured after 24 hrs by fluorescence microscopy; format: ADME
dsDNA [25] = assay: Binding affinity to double stranded ds26 DNA (unknown origin) assessed as decrease in absorbance with shift to lower wavelength at 25 uM by UV-Vis spectrophotometric analysis; format: nucleic-acid assay
[26] = Drug uptake in epimastigote form of Trypanosoma cruzi BM Lopez assessed as localization in kinetoplast and nucleus at 20 uM measured after 4 hrs by fluorescence microscopy; format: ADME
Trypanosoma cruzi [27] = assay: Potency index, ratio of Benznidazole IC50 to test compound IC50 for antiparasitic activity against trypomastigote form of Trypanosoma cruzi SOL (MHOM/ES/2008/SOL; DTU V) by resazurin dye based fluorescence analysis; format: functional
[28] = Selectivity index, ratio of IC50 for cytotoxicity against human MRC5 cells to IC50 for antiparasitic activity against epimastigote form of Trypanosoma cruzi DA (TcI); format: toxicity, cell-based; conditions: read-out: Ratio IC50
Quadruplex DNA [29] = assay: Stabilization of human proto-oncogene G-quadruplex MYC DNA (FAM-5'-TTGAGGGTGGGTAGGGTGGGTAA-3'-TAMRA) assessed as change in apparent melting temperature at 5 uM by FRET melting analysis; format: nucleic-acid assay
Trypanosoma cruzi [30] = assay: Antiparasitic activity against epimastigote form of Trypanosoma cruzi DA (TcI) assessed as inhibition of parasite growth incubated for 96 hrs followed by incubation with resazurin for 4 to 6 hrs by resazurin dye based fluorescence analysis; format: functional, organism-based
Quadruplex DNA [31] = assay: Binding affinity to Trypanosoma cruzi G-quadruplex RCr DNA (FAM-5'-GGGGACGGGAATGGGGGTGCATGAGGGG-3'-TAMRA) assessed as broadening of imino proton signals with delta shift at 1 equiv. by 1H-NMR analysis; format: nucleic-acid assay
Quadruplex DNA [32] = assay: Binding affinity to Trypanosoma cruzi G-quadruplex RCr DNA (FAM-5'-GGGGACGGGAATGGGGGTGCATGAGGGG-3'-TAMRA) assessed as decrease in absorption with shift to higher wavelength at 25 uM by UV-Vis spectrophotometric analysis; format: nucleic-acid assay

- Activity (Quadruplex DNA [1]): Active
- ΔTm (Quadruplex DNA [2]): 17 °C
- ΔTm (Quadruplex DNA [4]): 17 °C
- ΔTm (Quadruplex DNA [6]): 14 °C
- Activity (Quadruplex DNA [7]): Active
- pIC50 (Trypanosoma cruzi [8]): 4.68
- Activity (Quadruplex DNA [9]): Active
- Activity (Quadruplex DNA [11]): Active
- pIC50 (Trypanosoma cruzi [13]): 5.82
- Activity (dsDNA [15]): inactive
- Activity (Quadruplex DNA [16]): Active
- pIC50 (Trypanosoma cruzi [17]): 4.52
- Drug uptake [18]: Active
- Activity (Quadruplex DNA [19]): Active
- ΔTm (Quadruplex DNA [20]): 17 °C
- ΔTm (Quadruplex DNA [21]): 6.98 °C
- pIC50 (Trypanosoma cruzi [22]): 4.71
- Activity (Quadruplex DNA [23]): Active
- Drug uptake [24]: Active
- Activity (dsDNA [25]): inactive
- Drug uptake [26]: Active
- ΔTm (Quadruplex DNA [29]): 17 °C
- pIC50 (Trypanosoma cruzi [30]): 4.67
- Activity (Quadruplex DNA [31]): Active
- Activity (Quadruplex DNA [32]): Active
Compound: Cc1sc(-c2cccc3cc[n+](C)cc23)cc1C1=C(c2cc(-c3cccc4cc[n+](C)cc34)sc2C)CCC1.[I-].[I-]
- pIC50 [3]: 4.21
- selectivity ratio [5]: 3.1
- selectivity ratio [10]: 2
- selectivity ratio [12]: 40.9
- selectivity ratio [14]: 2.9
- Ratio IC50 (Trypanosoma cruzi [27]): 38
- selectivity ratio [28]: 2.9
